In patent publication US8604280B2, “Glyphosate tolerant perennial ryegrass named ‘replay’” (J.R. Simplot Company, priority 2009, dated 2013):

Test system: perennial ryegrass 96-3047
Assay: Glyphosate applied at termination of the Maryland turf trial, plot survival
Type: in vivo, Lolium perenne L.
Conditions: glyphosate at 2-quarts per acre; plot 96-3047, Maryland trial, 1999; only plot in the trial not killed
Source text: ‘Replay’ was developed from a greenhouse cross made in 1992 of perennial ryegrass ‘APM’ (registered, Reg. No. CV-185, PI 565096) pollinated by perennial ryegrass ‘Birdie II’ (registered, Reg. No. 133, PI 537452) in Post Falls, Id. Progeny of this cross was planted in a 1992 spaced-plant nursery in Post Falls, Id., and designated as 92-0226. An open-pollinated selection from this population, designated as 93-0736, was harvested and planted in company turf trials in Post Falls, Id., and Poolesville, Md., in 1993. In 1995, plugs of 93-0736 were pulled from the Maryland plot based on the desirable characteristics of dark green color and turf performance, and then planted in a spaced-plant nursery in Post Falls, Id. In 1996, the perennial ryegrass 96-3047 was selected from this population and planted in company turf trials in both Post Falls, Id., and Poolesville, Md.
In 1999, during the termination of the Maryland trial, 96-3047 was the only plot in the trial that was not killed when glyphosate at the rate of 2-quarts per acre was applied. Survival in the plot was estimated at 30% and plugs were pulled, coded as 99-0089, and 200 plants of 99-0089 were planted in an isolation block in the 1999 Post Falls, Id. nursery.

For `O=C(O)CNCP(=O)(O)O` [glyphosate, N-(phosphonomethyl) glycine], the “Survival in the plot” value was roughly 30%.
